In US10570129B2 (Zoetis Services LLC, priority 2015, dated 2020):

Columns and labels:
[1] = test system: D. immitis microfilariae; assay: Dirofilaria immitis, microfilariae (DiMF) in vitro motility assay; format: cell-based; details: for minimal effective concentration: Dirofilaria immitis, 72 h, read-out: DiMF minimally effective dose (MEC)
[2] = test system: Haemonchus contortus L3; assay: microbe, parasite or virus in culture; format: cell-based; details: for minimal effective concentration: Haemonchus contortus, 96 h, read-out: HcL3 Minimal Effective Concentration (MEC)

O=C(NCc1cnc(Cl)s1)n1c2c(c3cccc(Cl)c31)CN(C/C=C/c1ccc(Cl)cc1)CC2 [Example 273, (E)-6-chloro-2-(3-(4-chlorophenyl)allyl)-N-((2-chlorothiazol-5-yl)methyl)-1,2,3,4-tetrahydro-5H-pyrido[4,3-b]indole-5-carboxamide]
minimal effective concentration [1]: 18.2 µM
minimal effective concentration [2]: > 100 µM

N#Cc1ccc2c3c(n(C(=O)NCc4ccnc(Cl)c4)c2c1)CCN(C/C=C/c1ccc(F)cc1Cl)C3 [Example 24, (E)-2-(3-(2-chloro-4-fluorophenyl)allyl)-N-((2-chloropyridin-4-yl)methyl)-7-cyano-1,2,3,4-tetrahydro-5H-pyrido[4,3-b]indole-5-carboxamide]
minimal effective concentration [1]: 7.6 µM
minimal effective concentration [2]: 5.7 µM

(E)-N-((2-chloropyridin-4-yl)methyl)-2-(3-(3,4-dichlorophenyl)allyl)-9-methyl-1,2,3,4-tetrahydro-5H-pyrido[4,3-b]indole-5-carboxamide [Example 148]
DiMF minimally effective dose (MEC) ([1]; decrease in microfilariae motility by subjective visual assessment, observed at 72 hours): 10.0 µM
HcL3 Minimal Effective Concentration (MEC) [2]: 5.7 µM

NC(=O)c1ccc2c3c(n(C(=O)NCc4ccnc(Cl)c4)c2c1)CCN(C/C=C/c1ccc(Cl)c(F)c1)C3 [Example 465, (E)-2-(3-(4-chloro-3-fluorophenyl)allyl)-N^5-((2-chloropyridin-4-yl)methyl)-1,2,3,4-tetrahydro-5H-pyrido[4,3-b]indole-5,7-dicarboxamide]
minimal effective concentration [1]: 10 µM
minimal effective concentration [2]: 3.3 µM

O=C(NCc1ccnc(Cl)c1)n1c2c(c3ccc(Br)cc31)CN(C/C=C/c1ccc(F)c(F)c1)CC2 [Example 440, (E)-7-bromo-N-((2-chloropyridin-4-yl)methyl)-2-(3-(3,4-difluorophenyl)allyl)-1,2,3,4-tetrahydro-5H-pyrido[4,3-b]indole-5-carboxamide]
minimal effective concentration [1]: 10 µM
minimal effective concentration [2]: 1.8 µM

O=C(NCc1ccnc(F)c1)n1c2c(c3cc(Br)ccc31)CN(C/C=C/c1ccc(Cl)c(F)c1)CC2 [Example 188, (E)-8-bromo-2-(3-(4-chloro-3-fluorophenyl)allyl)-N-((2-fluoropyridin-4-yl)methyl)-1,2,3,4-tetrahydro-5H-pyrido[4,3-b]indole-5-carboxamide]
minimal effective concentration [1]: 3.3 µM
minimal effective concentration [2]: 0.3 µM

O=C(NCc1cnc(Cl)s1)n1c2c(c3cc(Cl)c(Cl)cc31)CN(C/C=C/c1ccc(Cl)cc1)CC2 [Example 294, (E)-7,8-dichloro-2-(3-(4-chlorophenyl)allyl)-N-((2-chlorothiazol-5-yl)methyl)-1,2,3,4-tetrahydro-5H-pyrido[4,3-b]indole-5-carboxamide]
minimal effective concentration [1]: 10 µM
minimal effective concentration [2]: > 100 µM

N#Cc1ccc2c(c1)c1c(n2C(=O)NCc2ccnc(F)c2)CCN(C/C=C/c2cc(Br)cs2)C1 [Example 126, (E)-2-(3-(4-bromothiophen-2-yl)allyl)-8-cyano-N-((2-fluoropyridin-4-yl)methyl)-1,2,3,4-tetrahydro-5H-pyrido[4,3-b]indole-5-carboxamide]
minimal effective concentration [1]: > 100 µM
minimal effective concentration [2]: > 100 µM

CS(=O)(=O)c1ccc2c(c1)c1c(n2C(=O)NCc2ccnc(Cl)c2)CCN(C/C=C/c2ccc(F)cc2F)C1 [Example 456, (E)-N-((2-chloropyridin-4-yl)methyl)-2-(3-(2,4-difluorophenyl)allyl)-8-(methylsulfonyl)-1,2,3,4-tetrahydro-5H-pyrido[4,3-b]indole-5-carboxamide]
minimal effective concentration [1]: 10 µM
minimal effective concentration [2]: 1.3 µM

N#Cc1ccc2c3c(n(C(=O)NCc4ccnc(F)c4)c2c1)CCN(C/C=C/c1ccc(Cl)c(F)c1F)C3 [Example 53, (E)-2-(3-(4-chloro-2,3-difluorophenyl)allyl)-7-cyano-N-((2-fluoropyridin-4-yl)methyl)-1,2,3,4-tetrahydro-5H-pyrido[4,3-b]indole-5-carboxamide]
minimal effective concentration [1]: > 100 µM
minimal effective concentration [2]: 5.7 µM

O=C(NCc1ccnc(Cl)c1)n1c2c(c3ccc(OC(F)(F)F)cc31)CN(C/C=C/c1ccc(Cl)cc1)CC2 [Example 353, (E)-2-(3-(4-chlorophenyl)allyl)-N-((2-chloropyridin-4-yl)methyl)-7-(trifluoromethoxy)-1,2,3,4-tetrahydro-5H-pyrido[4,3-b]indole-5-carboxamide]
minimal effective concentration [1]: 18.2 µM
minimal effective concentration [2]: 1 µM

O=C(NCc1ccnc(Cl)c1)n1c2c(c3cc(Cl)ccc31)CN(C/C=C/c1ccc(Cl)c(F)c1)CC2 [Example 232, (E)-8-chloro-2-(3-(4-chloro-3-fluorophenyl)allyl)-N-((2-chloropyridin-4-yl)methyl)-1,2,3,4-tetrahydro-5H-pyrido[4,3-b]indole-5-carboxamide]
minimal effective concentration [1]: 10 µM
minimal effective concentration [2]: 1 µM

N#Cc1ccc2c3c(n(C(=O)NCc4ccnc(Cl)c4)c2c1)CCN(C/C=C/c1ccc(Cl)c(F)c1F)C3 [Example 15, (E)-2-(3-(4-chloro-2,3-difluorophenyl)allyl)-N-((2-chloropyridin-4-yl)methyl)-7-cyano-1,2,3,4-tetrahydro-5H-pyrido[4,3-b]indole-5-carboxamide]
minimal effective concentration [1]: > 100 µM
minimal effective concentration [2]: 1 µM

O=C(NCc1ccnc(Cl)c1)n1c2c(c3ccc(Br)cc31)CN(C/C=C/c1ccc(F)cc1F)CC2 [Example 199, (E)-7-bromo-N-((2-chloropyridin-4-yl)methyl)-2-(3-(2,4-difluorophenyl)allyl)-1,2,3,4-tetrahydro-5H-pyrido[4,3-b]indole-5-carboxamide]
minimal effective concentration [1]: 24.5 µM
minimal effective concentration [2]: 5.7 µM

COc1cc(CNC(=O)n2c3c(c4cc(C#N)ccc42)CN(C/C=C/c2ccc(Cl)c(F)c2)CC3)ccn1 [Example 64, (E)-2-(3-(4-chloro-3-fluorophenyl)allyl)-8-cyano-N-((2-methoxypyridin-4-yl)methyl)-1,2,3,4-tetrahydro-5H-pyrido[4,3-b]indole-5-carboxamide]
minimal effective concentration [1]: 3.3 µM
minimal effective concentration [2]: 0.5 µM

O=C(NCc1ccnc(Cl)c1)n1c2c(c3cc(C(F)(F)F)ccc31)CN(C/C=C/c1ccc(Cl)c(F)c1)CC2 [Example 410, (E)-2-(3-(4-chloro-3-fluorophenyl)allyl)-N-((2-chloropyridin-4-yl)methyl)-8-(trifluoromethyl)-1,2,3,4-tetrahydro-5H-pyrido[4,3-b]indole-5-carboxamide]
minimal effective concentration [1]: 10 µM
minimal effective concentration [2]: 1.8 µM

N#Cc1ccc(-c2ccc3c(c2)c2c(n3C(=O)NCc3ccnc(F)c3)CCN(C/C=C/c3ccc(Cl)cc3)C2)cn1 [Example 460, (E)-2-(3-(4-chlorophenyl)allyl)-8-(6-cyanopyridin-3-yl)-N-((2-fluoropyridin-4-yl)methyl)-1,2,3,4-tetrahydro-5H-pyrido[4,3-b]indole-5-carboxamide]
minimal effective concentration [1]: 57.4 µM
minimal effective concentration [2]: > 100 µM

N#Cc1cccc2c1c1c(n2C(=O)NCc2ccnc(Cl)c2)CCN(C/C=C/c2ccc(F)cc2Cl)C1 [Example 25, (E)-2-(3-(2-chloro-4-fluorophenyl)allyl)-N-((2-chloropyridin-4-yl)methyl)-9-cyano-1,2,3,4-tetrahydro-5H-pyrido[4,3-b]indole-5-carboxamide]
minimal effective concentration [1]: 33 µM
minimal effective concentration [2]: > 100 µM
